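Cells were grown in 96-well plates and exposed to each compound for 48 hours at five concentrations; endpoints were interpolated linearly between bracketing concentrations, or set to the highest concentration if not reached. At the GI50, growth is halved.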 Calls of active or inactive are those of the source. No stated cut-off is given here; in the data, active = GI50 up to about 1.1 µM and inactive = higher.
Key:
Assay in all cases: DTP human tumour cell line panel, 48 h
HOP-92 = test system: HOP-92
LOX IMVI = test system: LOX IMVI
KM12 = test system: KM12
A498 = test system: A498
A549 = test system: A549
SF-539 = test system: SF-539
U-251 = test system: U-251
NCI/ADR-RES = test system: NCI/ADR-RES
OVCAR-5 = test system: OVCAR-5
SK-MEL-28 = test system: SK-MEL-28
OVCAR-8 = test system: OVCAR-8
HCC 2998 = test system: HCC 2998
HCT-116 = test system: HCT-116
NCI-H23 = test system: NCI-H23
UO-31 = test system: UO-31
DU-145 = test system: DU-145
UACC-257 = test system: UACC-257
Hs-578T = test system: Hs-578T
IGROV-1 = test system: IGROV-1
BT-549 = test system: BT-549

SMILES	GI50 (HOP-92)	GI50 (LOX IMVI)	GI50 (KM12)	GI50 (A498)	GI50 (A549)	GI50 (SF-539)	GI50 (U-251)	GI50 (NCI/ADR-RES)	GI50 (OVCAR-5)	GI50 (SK-MEL-28)	GI50 (OVCAR-8)	GI50 (HCC 2998)	GI50 (HCT-116)	GI50 (NCI-H23)	GI50 (UO-31)	GI50 (DU-145)	GI50 (UACC-257)	GI50 (Hs-578T)	GI50 (IGROV-1)	GI50 (BT-549)
Nc1ccc(-c2nc3ccc(Cc4ccc5nc(-c6ccc(N)cc6)oc5c4)cc3o2)cc1	47.4 µM (inactive)	> 100 µM (inactive)	> 100 µM (inactive)	> 100 µM (inactive)	> 100 µM (inactive)	> 100 µM (inactive)	> 100 µM (inactive)	> 100 µM (inactive)	> 100 µM (inactive)	> 100 µM (inactive)	> 100 µM (inactive)	> 100 µM (inactive)	> 100 µM (inactive)	> 100 µM (inactive)	> 100 µM (inactive)	> 100 µM (inactive)	> 100 µM (inactive)			
C/C(=C/CNc1ncnc2c1ncn2CCC(=O)O)CO	> 100 µM (inactive)	> 100 µM (inactive)	> 100 µM (inactive)	> 100 µM (inactive)	> 100 µM (inactive)	> 100 µM (inactive)		> 100 µM (inactive)	> 100 µM (inactive)	> 100 µM (inactive)	> 100 µM (inactive)	> 100 µM (inactive)	> 100 µM (inactive)	> 100 µM (inactive)	> 100 µM (inactive)	> 100 µM (inactive)	> 100 µM (inactive)	> 100 µM (inactive)	> 100 µM (inactive)	
O=C1OCC2=C1C(c1ccc3c(c1)OCO3)c1cc3c(cc1O2)OCO3 (stereo unspecified)	14.4 µM (inactive)	0.507 µM (active)		1.98 µM (inactive)	0.897 µM (active)	0.522 µM (active)	0.583 µM (active)	0.255 µM (active)	7.48 µM (inactive)	1.72 µM (inactive)	1.11 µM (active)	4.42 µM (inactive)	0.436 µM (active)	1.29 µM (inactive)	1.59 µM (inactive)	1.64 µM (inactive)	5.13 µM (inactive)	0.865 µM (active)	0.537 µM (active)	
CCOC(=O)C1=c2[nH]c3cccc4cccc(c43)n2C=C(C(C)=O)C1CC(C)=O (stereo unspecified)	36.6 µM (inactive)	43.2 µM (inactive)	> 100 µM (inactive)	86.1 µM (inactive)	46.2 µM (inactive)		> 100 µM (inactive)	> 100 µM (inactive)	> 100 µM (inactive)	> 100 µM (inactive)	46.2 µM (inactive)	62.7 µM (inactive)	34.4 µM (inactive)	69.7 µM (inactive)	37.4 µM (inactive)	> 100 µM (inactive)	> 100 µM (inactive)		> 100 µM (inactive)	> 100 µM (inactive)
Cc1n[nH]c(=O)n1/N=C/c1ccc(F)cc1	> 100 µM (inactive)		> 100 µM (inactive)	90.8 µM (inactive)	> 100 µM (inactive)	> 100 µM (inactive)		> 100 µM (inactive)	> 100 µM (inactive)	> 100 µM (inactive)	> 100 µM (inactive)	> 100 µM (inactive)	> 100 µM (inactive)	> 100 µM (inactive)	> 100 µM (inactive)	> 100 µM (inactive)	> 100 µM (inactive)			> 100 µM (inactive)
O=C(/C=C1\Nc2ccccc2N\C1=C\C(=O)c1ccc(Cl)cc1)c1ccccc1		33.3 µM (inactive)	64.4 µM (inactive)	73.6 µM (inactive)	53 µM (inactive)	35.1 µM (inactive)	23.4 µM (inactive)	> 100 µM (inactive)	64 µM (inactive)	42.4 µM (inactive)	23.9 µM (inactive)	74.8 µM (inactive)	38.3 µM (inactive)	75 µM (inactive)	21.4 µM (inactive)	> 100 µM (inactive)	53.8 µM (inactive)		> 100 µM (inactive)	34.5 µM (inactive)
CN(/N=C/c1ccc(C(=O)O)cc1)C1=NCCCCN1		> 100 µM (inactive)	> 100 µM (inactive)	> 100 µM (inactive)	> 100 µM (inactive)	> 100 µM (inactive)	> 100 µM (inactive)	> 100 µM (inactive)	> 100 µM (inactive)	> 100 µM (inactive)	> 100 µM (inactive)	> 100 µM (inactive)	> 100 µM (inactive)	> 100 µM (inactive)	> 100 µM (inactive)	> 100 µM (inactive)	> 100 µM (inactive)		> 100 µM (inactive)	> 100 µM (inactive)
COc1ccc(C(=O)/C=C/c2ccc(OCCCCCCCCCCOc3ccc(/C=C/C(=O)c4ccc(OC)c(OC)c4)cc3)cc2)c(OC)c1			> 100 µM (inactive)		> 100 µM (inactive)	> 100 µM (inactive)	> 100 µM (inactive)	> 100 µM (inactive)	> 100 µM (inactive)	> 100 µM (inactive)	> 100 µM (inactive)	> 100 µM (inactive)	> 100 µM (inactive)		> 100 µM (inactive)	> 100 µM (inactive)	> 100 µM (inactive)	76 µM (inactive)	> 100 µM (inactive)	
CCOC1=NC(O)c2cccn2-c2sccc21 (stereo unspecified)	> 100 µM (inactive)		> 100 µM (inactive)	56.8 µM (inactive)	43.2 µM (inactive)	> 100 µM (inactive)	> 100 µM (inactive)	> 100 µM (inactive)	> 100 µM (inactive)	> 100 µM (inactive)	> 100 µM (inactive)	> 100 µM (inactive)	> 100 µM (inactive)	> 100 µM (inactive)	> 100 µM (inactive)	> 100 µM (inactive)				
CCOC(=O)c1sc2c(c1OC(=O)c1cccs1)c(=O)n(-c1ccccc1)c(=S)n2-c1ccccc1	24.5 µM (inactive)	15.7 µM (inactive)	16.1 µM (inactive)	6.4 µM (inactive)	12.3 µM (inactive)	16.7 µM (inactive)	12.2 µM (inactive)	11.1 µM (inactive)	22.6 µM (inactive)	11.8 µM (inactive)	18.2 µM (inactive)	16.6 µM (inactive)	5.3 µM (inactive)	15.8 µM (inactive)	0.175 µM (active)	20.5 µM (inactive)	27.4 µM (inactive)	23.7 µM (inactive)	12.2 µM (inactive)	
Cc1ccc2c(O)cc(-c3ccc(Cl)s3)nc2n1	> 58.1 µM (inactive)	0.662 µM (active)	0.488 µM (active)	4.7 µM (inactive)	1.14 µM (inactive)	0.538 µM (active)	0.855 µM (active)	0.409 µM (active)	2.75 µM (inactive)	0.665 µM (active)	1.44 µM (inactive)	1.34 µM (inactive)	0.552 µM (active)	0.889 µM (active)	0.245 µM (active)	3.57 µM (inactive)	5.68 µM (inactive)	1.62 µM (inactive)	0.564 µM (active)	
O=C1Oc2cc3c(c4cccc1c24)O[C@H](c1ccccc1)[C@@H](c1ccccc1)[C@@H]3c1ccc(Cl)cc1	28.8 µM (inactive)	68.4 µM (inactive)	> 100 µM (inactive)			33.7 µM (inactive)	19.6 µM (inactive)	> 100 µM (inactive)	> 100 µM (inactive)	> 100 µM (inactive)	16.2 µM (inactive)	> 100 µM (inactive)	31.8 µM (inactive)	34 µM (inactive)		> 100 µM (inactive)	> 100 µM (inactive)	88.7 µM (inactive)	22.8 µM (inactive)	
CC1NOC(=O)C1/N=N/c1cccc(Cl)c1 (stereo unspecified)	26.4 µM (inactive)	28.8 µM (inactive)	40.7 µM (inactive)	17.3 µM (inactive)	33.2 µM (inactive)	34.3 µM (inactive)	25.2 µM (inactive)		47.5 µM (inactive)	43.9 µM (inactive)	44.8 µM (inactive)	> 100 µM (inactive)	31.7 µM (inactive)	99.5 µM (inactive)	35.6 µM (inactive)		29 µM (inactive)		40.8 µM (inactive)	
CCN(CC)CC(C(=O)Nc1c(C)cccc1C)/C(C)=N/NC(N)=S (stereo unspecified)	> 100 µM (inactive)	> 100 µM (inactive)	> 100 µM (inactive)	> 100 µM (inactive)	> 100 µM (inactive)	> 100 µM (inactive)	> 100 µM (inactive)		> 100 µM (inactive)	> 100 µM (inactive)	> 100 µM (inactive)	> 100 µM (inactive)	> 100 µM (inactive)	> 100 µM (inactive)	> 100 µM (inactive)		> 100 µM (inactive)		> 100 µM (inactive)	
CCOC(=O)NC(=O)c1cn(CCN2CCN(C(=O)NCCCCCCNC(=O)N3CCN(CCn4cc(C(=O)NC(=O)OCC)c(=O)[nH]c4=O)CC3)CC2)c(=O)[nH]c1=O	> 100 µM (inactive)	> 100 µM (inactive)	> 100 µM (inactive)	> 100 µM (inactive)	> 100 µM (inactive)	> 100 µM (inactive)	> 100 µM (inactive)		> 100 µM (inactive)	> 100 µM (inactive)	> 100 µM (inactive)	> 100 µM (inactive)	> 100 µM (inactive)	> 100 µM (inactive)	> 100 µM (inactive)		> 100 µM (inactive)		> 100 µM (inactive)	
OC(c1ccccn1)C1CNc2ccccc21 (stereo unspecified)	> 100 µM (inactive)	> 100 µM (inactive)	> 100 µM (inactive)	> 100 µM (inactive)	> 100 µM (inactive)	> 100 µM (inactive)	> 100 µM (inactive)		> 100 µM (inactive)	> 100 µM (inactive)	> 100 µM (inactive)	> 100 µM (inactive)	> 100 µM (inactive)	> 100 µM (inactive)	> 100 µM (inactive)		> 100 µM (inactive)		> 100 µM (inactive)	

From ChEMBL document CHEMBL1201862, “PubChem BioAssay data set” (2004)
